# From paper PMC4405350, “From Broad-Spectrum Biocides to Quorum Sensing Disruptors and Mussel Repellents: Antifouling Profile of Alkyl Triphenylphosphonium Salts” (PLoS ONE, 2015)
# Columns and labels:
# Assay type in all cases: cell-based
# [1] = system: Gayralia oxysperma spores; experiment: Macroalgal spore germination inhibition; conditions: 6 days, 19±1 °C
# Protocol: (§1) All the biological assays were run by triplicate. […] For the active products, serial dilutions were performed to calculate the half-maximal inhibitory concentrations (IC50) or the minimal inhibitory concentrations (MIC). Unless otherwise stated, the test concentrations were 100, 50, 25, 10, 5, 2.5, 1, 0.5 and 0.1 μM. Dose-response curves were adjusted with GraphPad Prism 5 software using a four-parameter non-linear regression model.
# To evaluate the effect of the phosphonium salts on the germination of macroalgal spores, Gayralia oxysperma (Kützing) K.L.Vinogradova was selected as model organism. G. oxysperma (Ulotrichales, Chlorophyta) is a cosmopolitan member of the Ulvophyceae. Unlike Ulva species, which produce biflagellate male and female gametes, as well as quadriflagellate spores, G. oxysperma only produces biflagellate spores. This is an advantage as bioassays can be conducted straightforwardly without the need to distinguish between gamete-producing and zoospore-producing plants. […] Fresh fertile fragments were selected and placed in Petri dishes. Spores were then released in Von Stosch Solution (VSS) by the osmotic method. Bioassays were conducted in flat-bottom 96-well plates as described by Chambers and co-workers, with slight modifications. Each well was filled with 50 μl of the appropriate dilution of the products in VSS to which 50 μl of spore inoculum (ca. 2 x 10^5 spores ml^-1) were added. Plates were incubated at 19±1 °C for 6 days. After the incubation time, the bottom of each well was examined for the presence of germinated spores with an inverted microscope. A spore was considered as germinated when the germ tube was visible. The MIC was recorded as the lowest concentration inhibiting spore germination.
# Fusarium sp. = experiment: Marine-derived fungi growth inhibition (OD405); conditions: 5 days, 26 °C
# Protocol: All the biological assays were run by triplicate.
# (§2) Three strains of marine-derived fungi were kindly provided by Dr. Á. Trigos (University of Veracruz, Mexico). The strains were isolated from reef organisms collected from the Veracruz Reef System and identified as Aspergillus sp., Fusarium sp. and Alternaria sp..
# (§3) Fungal strains were cultured in Potato-Dextrose Agar (PDA) supplemented with filtered seawater (FSW) (50% v/v) at 26 °C for 5 days prior to experiments. […] Briefly, fungal inocula were prepared by addition of 5 ml of sterile saline solution to the cultures. Gently swabbing released conidia. […] The plates were incubated for 5 days at 26 °C. The calculation of the half-maximal inhibitory concentrations (IC50) was performed using OD405 as endpoint.
# Amphora sp. = experiment: Benthic diatom growth inhibition (chlorophyll-a); conditions: growth, 5 days, chlorophyll-a; read-out: IC50 Amphora sp.
# Protocol: as §1
# (§4) Five strains of benthic diatoms, Nitszchia sp. […] The Nitzschia and Navicula strains were purchased from the Spanish Bank of Algae (Marine Biotechnology Center, University of Las Palmas de Gran Canaria). The other three strains were kindly provided by Dr. G. Courtois (University of Las Palmas de Gran Canaria). Diatoms were cultured at 19±1 °C in Erlenmeyer flaks (250 ml) containing 150 ml of Guillard’s F/2 medium, and subjected to a photoperiod of 18:6. Tests were run in 48-well plates. Inocula were prepared by adjusting diatom concentration to 2–4 × 10^6 cells ml^-1 using a Neubauer chamber. Test products were dissolved in F/2 medium (500 μl) to which diatom inocula (500 μl) were added. Thus, the final assay volume was 1 ml and the starting cell densities were ca. 1–2 x 10^6 diatoms ml^-1. Plates were incubated under the abovementioned conditions for 5 days and then chlorophyll-a (Chla) was quantified.
# (§5) In order to extract Chla, the content of each well was transferred to a microcentrifuge tube and centrifuged at 10,000 rpm for 10 min. The supernatants were discarded and 200 μl of DMSO were added to the pellets. The tubes were incubated at 65 °C for 2 h in total darkness and vortexed every 30 min. Then, the content of each tube was transferred to a 96-well plate and the amount of Chla was determined spectrophotometrically. Path length correction factor for the DMSO extracts was determined.
# [2] = system: Phaeodactylum tricornutum; experiment: Benthic diatom growth inhibition (chlorophyll-a); conditions: growth, 5 days, chlorophyll-a; read-out: IC50 P. tricornutum
# Protocol: as §1, §4, §5
# Cylindrotheca sp. = experiment: Benthic diatom growth inhibition (chlorophyll-a); conditions: growth, 5 days, chlorophyll-a; read-out: IC50 Cylindrotheca sp.
# Protocol: as §1, §4, §5
# [3] = system: Navicula cf. salinicola BEA 0055; experiment: Benthic diatom growth inhibition (chlorophyll-a); conditions: growth, 5 days, chlorophyll-a; read-out: IC50 Navicula cf. salinicola
# Protocol: as §1, §4, §5
# Nitzschia sp. = experiment: Benthic diatom growth inhibition (chlorophyll-a); conditions: growth, 5 days, chlorophyll-a; read-out: IC50 Nitzschia sp.
# Protocol: as §1, §4, §5
# Alternaria sp. = experiment: Marine-derived fungi growth inhibition (OD405); conditions: growth inhibition, 5 days, 26 °C; read-out: IC50 Alternaria sp.
# Protocol: as §1, §2, §3
# Aspergillus sp. = experiment: Marine-derived fungi growth inhibition (OD405); conditions: growth inhibition, 5 days, 26 °C; read-out: IC50 Aspergillus sp.
# Protocol: as §1, §2, §3
# [4] = system: Vibrio alginolyticus CECT 521; experiment: Marine bacteria growth inhibition (broth microdilution, OD625); conditions: growth inhibition, 24 h, 30 °C, three replicates; read-out: IC50 V. alginolyticus
# Protocol: as §1
# (§6) Growth inhibition was assessed in Marine Broth (Conda) according to CLSI guidelines for broth microdilution susceptibility testing. The incubation time was 24 h and the incubation temperature was 30 °C.
# [5] = system: Shewanella algae CECT 5021; experiment: as above; conditions: growth inhibition, 24 h, 30 °C, three replicates; read-out: IC50 S. algae
# Protocol: as §1, §6
# Cobetia marina CECT 4278 = experiment: as above; conditions: growth inhibition, 24 h, 30 °C, three replicates; read-out: IC50 C. marina
# Protocol: as §1, §6
# [6] = system: Vibrio anguillarum CECT 4347; experiment: as above; conditions: growth inhibition, 24 h, 30 °C, three replicates; read-out: IC50 V. anguillarum
# Protocol: as §1, §6
# [7] = system: Cellulophaga lytica CECT 5014; experiment: as above; conditions: growth inhibition, 24 h, 30 °C, three replicates; read-out: IC50 C. lytica
# Protocol: as §1, §6
# [8] = system: Pseudoalteromonas atlantica CECT 579; experiment: as above; conditions: growth inhibition, 24 h, 30 °C, three replicates; read-out: IC50 P. atlantica
# Protocol: as §1, §6
substance,measurement,setting,value
"bis-(tris-n-butyltin)oxide [TBTO, reference compound]",MIC G. oxysperma (lowest concentration inhibiting spore germination),[1],5 µM
same,IC50,Fusarium sp.,6.7 µM
same,IC50,Amphora sp.,5.7 µM
same,IC50,[2],1.7 µM
same,IC50,Cylindrotheca sp.,0.4 µM
same,IC50,[3],6.3 µM
same,IC50,Nitzschia sp.,2.8 µM
same,IC50,Alternaria sp.,0.6 µM
same,IC50,Aspergillus sp.,3 µM
same,IC50,[4],38.6 µM
same,IC50,[5],6.4 µM
same,IC50,Cobetia marina CECT 4278,34.2 µM
same,IC50,[6],27.5 µM
same,IC50,[7],0.5 µM
same,IC50,[8],46.6 µM
